From patent publication US5998397A, “Gallium complexes of 3-Hydroxy-4-pyrones to treat or prevent bone disease” (priority 1998, dated 1999)

Tests used:
[1] = Solubility in distilled deionized water
Excerpt: Under some conditions, water may also be incorporated into the structure.

[2] = Oral bioavailability study in rabbits (serum gallium by graphite furnace atomic absorption); type: in vivo, New Zealand white rabbits; settings: oral gavage; for Mean gallium content of rabbit serum: 4 ml per kg, 10 mg elemental gallium per 4 ml, fasted 18 hours, 3 animals
Description: A test of the oral bioavailability of the 3:1 ethyl maltol:gallium complex in rabbits was conducted. In this test, the complex was given to rabbits and compared to a solution of gallium nitrate. Six female New Zealand white rabbits weighing between 2.68 and 2.91 kg were used, and were not fed for 18 hours before starting the experiment. A suspension of the 3:1 gallium ethyl maltol complex in double distilled water was prepared with a concentration of 10 mg elemental gallium per 4 ml of suspension. […] A small amount of solid sodium carbonate was added to the latter solution to bring the pH up to about 6. Each of the two solutions was given to three rabbits by oral gavage (through a tube inserted through the mouth to the stomach) in the amount of 4 ml per kg of body weight. The stomach tubes were flushed by three ml of water following administration of the solutions.
Six ml of blood was taken from each, rabbit at 1 hour, 2 hours, 4 hours, 8 hours, and 24 hours following administration of the solutions, and the serum separated and frozen. Control samples of blood were taken 24 hours earlier. The frozen serum samples were then sent to an independent testing laboratory for determination of the gallium contents by graphite furnace atomic absorption analysis. The testing laboratory received numbered serum samples, and never had any knowledge of the experimental conditions used to produce the samples. Due to uncertainties in the analytical procedures for gallium in serum, the relative proportions of gallium in the serum samples are considered more significant than the actual reported concentrations.

[3] = type: physicochemical
Description: The complex was studied at two concentrations in double distilled deionized water: […]. The pH was adjusted by adding either 1N HCl or 1N Na2 CO3. The stability of the complex was determined using ultraviolet spectroscopy over the region 200-450 nm at 25° C. […] An isobesic point occurs over much of the pH range at about 290 nm. In the very dilute solutions (2.5×10^-6 M), the neutral 3:1 complex appears to be stable from about pH 4.5 to 9.5. For the less dilute solutions (1.0×10^-2 M), the determination was more difficult due to the very high absorbance.

rabbits = settings: rabbit, in vivo; cited from earlier work

For CCc1occc(=O)c1[O][Ga]([O]c1c(CC)occc1=O)[O]c1c(CC)occc1=O [Gallium Ethyl Maltol, 3:1 complex of ethyl maltol and gallium], the Solubility ([1]; distilled deionized water, 23° C.) was “about 5 millimolar”, the “Mean gallium content of rabbit serum” value ([2]; 1 hour) was 90 ng/mL and the “Mean gallium content of rabbit serum” value ([2]; 2 hours) was 274 ng/mL. The “Mean gallium content of rabbit serum” value ([2]; 4 hours) was 260 ng/mL, the “Mean gallium content of rabbit serum” value ([2]; 8 hours) was 212 ng/mL and the “Mean gallium content of rabbit serum” value ([2]; 24 hours) was 84 ng/mL. The “Oral absorption compared with gallium nitrate” value ([2]; rabbits, equal volume and gallium concentration, stomach acid not counteracted) was “absorbed in significantly higher amounts than the gallium nitrate suspension”.
In the case of Cc1occc(=O)c1[O-].Cc1occc(=O)c1[O-].Cc1occc(=O)c1[O-].[Ga+3] [Gallium Maltol], the Solubility ([1]; water) is reported as “about 24 millimolar” and the “pH stability region of the neutral 3:1 complex (in words)” value [3] is reported as “very similar to that of the highly dilute solution, possibly slightly wider”.
In the case of Cc1occc(=O)c1[O][Al]([O]c1c(C)occc1=O)[O]c1c(C)occc1=O [aluminum maltol complex], the Neurotoxicity (rabbits) is given as “highly neurotoxic”.
For O=[N+]([O-])[O-].O=[N+]([O-])[O-].O=[N+]([O-])[O-].[Ga+3] [gallium nitrate, reference compound], the “Mean gallium content of rabbit serum” value ([2]; 1 hour) was 51 ng/mL, the “Mean gallium content of rabbit serum” value ([2]; 2 hours) was 99 ng/mL and the “Mean gallium content of rabbit serum” value ([2]; 4 hours) was 118 ng/mL. For the same compound, the “Mean gallium content of rabbit serum” value ([2]; 8 hours) was 103 ng/mL and the “Mean gallium content of rabbit serum” value ([2]; 24 hours) was 64 ng/mL.
